Results: ChEMBL document CHEMBL1130362, “Pyrrolylquinoxalinediones: The importance of pyrrolic substitution on AMPA receptor binding” (Bioorg Med Chem Lett, 1997)

Assays:
[1] = molecular target: Glutamate receptor ionotropic AMPA (Homo sapiens, UniProt P42261+P42262+P42263+P48058)
Description: Displacement of [3H]AMPA from AMPA receptor

[2] = molecular target: Glutamate receptor ionotropic, NMDA 2C (Rattus norvegicus, UniProt Q00961); assay: Ability to displace [3H]glycine from NMDA receptor
Mus musculus = assay: In vivo AMPA antagonism to protect 50% animals after intraperitoneal administration of the compound; type: functional; settings: ip

Sequence of Glutamate receptor ionotropic, NMDA 2C (Q00961 whole entry): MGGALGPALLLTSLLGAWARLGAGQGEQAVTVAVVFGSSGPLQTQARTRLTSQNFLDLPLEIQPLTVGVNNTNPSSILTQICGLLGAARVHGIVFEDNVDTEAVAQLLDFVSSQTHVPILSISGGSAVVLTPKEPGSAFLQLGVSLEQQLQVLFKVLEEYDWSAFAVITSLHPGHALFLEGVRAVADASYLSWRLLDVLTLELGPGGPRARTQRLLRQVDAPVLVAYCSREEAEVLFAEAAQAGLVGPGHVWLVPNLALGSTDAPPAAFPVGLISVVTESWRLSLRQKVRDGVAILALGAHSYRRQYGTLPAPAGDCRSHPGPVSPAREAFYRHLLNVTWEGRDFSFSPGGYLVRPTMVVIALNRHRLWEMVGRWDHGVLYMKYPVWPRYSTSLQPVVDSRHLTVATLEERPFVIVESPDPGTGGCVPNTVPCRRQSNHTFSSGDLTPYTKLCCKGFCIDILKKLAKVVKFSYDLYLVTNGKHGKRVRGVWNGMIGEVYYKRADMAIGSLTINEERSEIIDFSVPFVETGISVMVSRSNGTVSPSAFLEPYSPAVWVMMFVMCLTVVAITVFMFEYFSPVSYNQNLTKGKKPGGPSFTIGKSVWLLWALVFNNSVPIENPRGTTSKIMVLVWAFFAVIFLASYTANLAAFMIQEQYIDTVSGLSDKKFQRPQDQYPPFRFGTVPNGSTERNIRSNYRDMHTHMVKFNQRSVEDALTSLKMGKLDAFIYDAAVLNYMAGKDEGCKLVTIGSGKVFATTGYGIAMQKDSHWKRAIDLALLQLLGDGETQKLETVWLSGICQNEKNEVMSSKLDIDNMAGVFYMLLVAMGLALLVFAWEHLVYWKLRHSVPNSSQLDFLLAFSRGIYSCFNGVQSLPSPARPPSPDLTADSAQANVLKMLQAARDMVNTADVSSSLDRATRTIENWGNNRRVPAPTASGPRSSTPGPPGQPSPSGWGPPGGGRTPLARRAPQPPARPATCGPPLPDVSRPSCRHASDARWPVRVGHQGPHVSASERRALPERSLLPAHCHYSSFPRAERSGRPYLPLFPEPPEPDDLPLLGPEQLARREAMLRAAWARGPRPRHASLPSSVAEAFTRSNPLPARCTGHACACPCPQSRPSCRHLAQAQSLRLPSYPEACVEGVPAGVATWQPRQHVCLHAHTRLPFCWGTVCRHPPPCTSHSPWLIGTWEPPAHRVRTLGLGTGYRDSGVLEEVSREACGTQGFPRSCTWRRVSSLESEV

Structure (SMILES)	Ki [1]	Ki [2]	ED50 (Mus musculus)
O=C(O)Cn1c(=O)c(=O)[nH]c2cc([N+](=O)[O-])c(-n3ccc(CNC(=O)Nc4ccccc4)c3)cc21	0.071 µM	> 30 µM	> 30 mg/kg
O=C(O)Cn1c(=O)c(=O)[nH]c2cc(C(F)(F)F)c(-n3ccc(CNC(=O)Nc4ccc(C(F)(F)F)cc4)c3)cc21	0.005 µM	> 30 µM	14 mg/kg
O=C(O)Cn1c(=O)c(=O)[nH]c2cc([N+](=O)[O-])c(-n3cccc3)cc21	0.07 µM		
NCc1ccn(-c2cc3c(cc2[N+](=O)[O-])[nH]c(=O)c(=O)n3CC(=O)O)c1	0.84 µM		
O=C(O)Cn1c(=O)c(=O)[nH]c2cc(C(F)(F)F)c(-n3ccc(/C=N/OCc4ccccc4)c3)cc21	0.25 µM		
O=C(NCc1ccn(-c2cc3nc(O)c(O)nc3cc2[N+](=O)[O-])c1)Nc1ccccc1	0.25 µM	> 30 µM	30 mg/kg
O=c1[nH]c2cc(-n3ccnc3)c([N+](=O)[O-])cc2[nH]c1=O [YM-90K]	0.135 µM		
O=C(O)Cn1c(=O)c(=O)[nH]c2cc(C(F)(F)F)c(-n3ccc(CNC(=O)NCc4ccccc4)c3)cc21	0.049 µM	> 30 µM	30 mg/kg
Cc1ccc(C)n1-c1cc2nc(O)c(O)nc2cc1[N+](=O)[O-]	20 µM		
Oc1nc2cc(-n3cccc3)c(C(F)(F)F)cc2nc1O	3 µM		
NCc1ccn(-c2cc3nc(O)c(O)nc3cc2[N+](=O)[O-])c1	2 µM		
COC(=O)c1cccn1-c1cc2nc(O)c(O)nc2cc1C(F)(F)F	> 25 µM		
NCc1ccn(-c2cc3nc(O)c(O)nc3cc2C(F)(F)F)c1	0.98 µM		
O=C(O)Cn1c(=O)c(=O)[nH]c2cc([N+](=O)[O-])c(-n3ccc(/C=N/OCc4ccccc4)c3)cc21	0.21 µM		
CC(=O)NCc1ccn(-c2cc3c(cc2C(F)(F)F)[nH]c(=O)c(=O)n3CC(=O)O)c1	0.076 µM	> 30 µM	10 mg/kg
O=C(O)Cn1c(=O)c(=O)[nH]c2cc([N+](=O)[O-])c(-n3ccc(CNC(=O)NCCc4ccncc4)c3)cc21	0.095 µM		
O=C(O)c1cccn1-c1cc2nc(O)c(O)nc2cc1C(F)(F)F	> 25 µM		
O=C(O)Cn1c(=O)c(=O)[nH]c2cc(C(F)(F)F)c(-n3cccc3)cc21	0.18 µM		

Structure (SMILES)	Ki [1]	Ki [2]	ED50 (Mus musculus)
O=C(O)Cn1c(=O)c(=O)[nH]c2cc(C(F)(F)F)c(-n3ccc(CNC(=O)Nc4ccc(Br)cc4)c3)cc21	0.004 µM	> 30 µM	4.1 mg/kg
NCc1ccn(-c2cc3c(cc2C(F)(F)F)[nH]c(=O)c(=O)n3CC(=O)O)c1	10 µM		
O=C(NCc1ccn(-c2cc3nc(O)c(O)nc3cc2[N+](=O)[O-])c1)Nc1ccncc1	0.11 µM		
O=C(O)Cn1c(=O)c(=O)[nH]c2cc(C(F)(F)F)c(-n3ccc(CNC(=O)Nc4ccccc4)c3)cc21	0.015 µM	> 30 µM	18 mg/kg
O=[N+]([O-])c1cc2nc(O)c(O)nc2cc1-n1cccc1	0.4 µM		
O=C(O)Cn1c(=O)c(=O)[nH]c2cc(C(F)(F)F)c(-n3ccc(CNC(=O)Nc4ccc([N+](=O)[O-])cc4)c3)cc21	0.005 µM	> 30 µM	5.5 mg/kg
CN(Cc1ccccc1)Cc1ccn(-c2cc3nc(O)c(O)nc3cc2[N+](=O)[O-])c1	0.88 µM		
O=C(O)Cn1c(=O)c(=O)[nH]c2cc([N+](=O)[O-])c(-n3ccc(CNC(=O)CCc4ccccc4)c3)cc21	0.5 µM		
O=C(O)Cn1c(=O)c(=O)[nH]c2cc([N+](=O)[O-])c(-n3ccc(CNC(=O)c4ccncc4)c3)cc21	0.28 µM		
CCN(CC)Cc1ccn(-c2cc3c(cc2C(F)(F)F)[nH]c(=O)c(=O)n3CC(=O)O)c1	0.89 µM		
O=C(O)Cn1c(=O)c(=O)[nH]c2cc([N+](=O)[O-])c(-n3ccc(CC(=O)N4CCCCC4)c3)cc21	3 µM		
O=C(NCc1ccccc1)c1cccn1-c1cc2nc(O)c(O)nc2cc1C(F)(F)F	> 25 µM		
O=C(O)Cn1c(=O)c(=O)[nH]c2cc(C(F)(F)F)c(-n3ccc(CNC(=O)Cc4ccccc4)c3)cc21	0.14 µM		
NS(=O)(=O)c1cccc2c1c([N+](=O)[O-])cc1nc(O)c(O)nc12 [NBQX]			> 50 mg/kg
Cc1ccc(C)n1-c1cc2nc(O)c(O)nc2cc1C(F)(F)F	> 25 µM		
Cc1ccc(C)n1-c1cc2c(cc1C(F)(F)F)[nH]c(=O)c(=O)n2CC(=O)O	2 µM		
O=C(O)Cn1c(=O)c(=O)[nH]c2cc(C(F)(F)F)c(-n3ccc(CNC(=O)c4ccccc4)c3)cc21	0.078 µM	> 30 µM	> 30 mg/kg
O=Cc1ccn(-c2cc3nc(O)c(O)nc3cc2C(F)(F)F)c1	0.65 µM		
